The results in this text go back to patent publication US8309721B2, “HSP90 inhibitory carbazole derivatives, compositions containing same and use thereof” (Sanofi, priority 2008, dated 2012).

pIC50: −log10 of the molar value.

Series [1] concerns Her2 receptor expression at the surface of SKBr3 cells. Briefly: phenotypic SKBr3/HER2 cell test (Her2 surface expression by flow cytometry). Format: cell-based. The settings on record: Homo sapiens, SK-BR-3, 24 h incubation, inhibition of Her2 expression. The gist of the method: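 SKBr3 cells (Her2-overexpressing adenocarcinoma) treated 24 h with compound at varying concentrations, then stained with PE-anti-Her2 antibody 30 min at 4° C; surface Her2 measured by flow cytometry. IC50 from nonlinear fit of % inhibition of Her2 expression versus concentration.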
In general terms: Flow cytometry measures light scatter and fluorescence of single cells or particles in a stream.

Series [2] deals with Hsp82 (Saccharomyces cerevisiae, UniProt P02829). Briefly: Hsp82/ATPase test (malachite green or PK/LDH coupled method). The class given is biochemical. The settings on record: 1 μM Hsp82, 250 μM ATP, 37° C.; read-out: Hsp82 ATPase IC50. The gist of the method: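 1 μM Hsp82 with 250 μM ATP, 60 min at 37 °C in HEPES-NaOH pH 7.5 with MgCl2, KCl and DTT; released phosphate read by malachite green at 620 nm against a phosphate standard curve. Alternatively, ADP formation is followed continuously by PK/LDH-coupled NADH loss at 340 nm, 37 °C. Results expressed as percent inhibition of ATPase activity.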
Sequence of Hsp82 (P02829 whole entry): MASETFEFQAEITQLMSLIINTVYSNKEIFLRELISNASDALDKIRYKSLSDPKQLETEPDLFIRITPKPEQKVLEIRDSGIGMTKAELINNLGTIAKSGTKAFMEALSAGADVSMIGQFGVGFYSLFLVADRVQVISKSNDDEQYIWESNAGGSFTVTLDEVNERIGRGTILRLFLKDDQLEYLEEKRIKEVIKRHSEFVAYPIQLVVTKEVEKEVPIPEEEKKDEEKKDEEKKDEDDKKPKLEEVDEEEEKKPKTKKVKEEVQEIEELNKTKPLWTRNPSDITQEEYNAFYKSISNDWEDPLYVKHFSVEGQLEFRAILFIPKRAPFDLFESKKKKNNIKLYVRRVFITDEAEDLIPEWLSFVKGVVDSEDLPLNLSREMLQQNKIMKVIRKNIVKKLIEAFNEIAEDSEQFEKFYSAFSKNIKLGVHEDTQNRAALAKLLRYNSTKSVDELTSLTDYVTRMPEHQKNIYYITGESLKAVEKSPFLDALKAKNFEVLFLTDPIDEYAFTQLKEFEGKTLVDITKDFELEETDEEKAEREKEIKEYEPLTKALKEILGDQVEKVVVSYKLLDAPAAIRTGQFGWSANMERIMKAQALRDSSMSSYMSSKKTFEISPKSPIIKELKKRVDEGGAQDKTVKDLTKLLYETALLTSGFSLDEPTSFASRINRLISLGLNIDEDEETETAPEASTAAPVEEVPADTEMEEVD

In general, pIC50 refers to the negative decadic logarithm of the IC50, by convention in mol/L. The term melting point denotes the temperature, or range, at which the solid turns liquid. Regarding `NC(=O)c1ccc(-n2c3ccccc3c3c(-c4ccc(C(F)(F)F)nc4)cccc32)cc1NCCCO` [Example 69, 2-[(3-hydroxypropyl)amino]-4-{4-[6-(trifluoromethyl)pyridin-3-yl]-9H-carbazol-9-yl}benzamide], the melting point was 180 °C. The compound further showed a pIC50 in series [1] of 5.00 to 6.00. In addition, in series [2], the negative-log IC50 (pIC50) was 5.00 to 6.00.

In the case of `N#Cc1ccc(-c2cccc3c2c2ccccc2n3-c2ccc(C(N)=O)c(N[C@H]3CC[C@H](O)CC3)c2)cn1` [Example 49, 4-[4-(6-cyanopyridin-3-yl)-9H-carbazol-9-yl]-2-[(4-trans-hydroxycyclohexyl)amino]benzamide], the melting point is 274 °C. Moreover, the negative-log IC50 (pIC50) in series [1] is greater than 6.00. In series [2], the pIC50 is greater than 6.00.

On to `NC(=O)c1ccc(-n2c3ccccc3c3c(-c4cncc(OCc5ccccc5)c4)cccc32)cc1NCCCO` [Example 68, 4-{4-[5-(benzyloxy)pyridin-3-yl]-9H-carbazol-9-yl}-2-[(3-hydroxypropyl)amino]benzamide], for which the melting point turned out to be 168 °C. In addition, the negative-log IC50 (pIC50) in series [1] was 5.00 to 6.00. Also, the pIC50 in series [2] was 5.00 to 6.00.

Compound `COc1cncc(-c2cccc3c2c2ccccc2n3-c2ccc(C(N)=O)c(N[C@H]3CC[C@H](O)CC3)c2)c1` [Example 27, 2-[(4-trans-hydroxycyclohexyl)amino]-4-[4-(5-methoxypyridin-3-yl)-9H-carbazol-9-yl]benzamide] registered a melting point of 263 °C. Further, in series [1], the negative logarithm of the IC50 (pIC50) was greater than 6.00. The negative-log IC50 (pIC50) in series [2] was greater than 6.00.

`COc1cncc(-c2cccc3c2c2ccccc2n3-c2ccc(C(N)=O)c(NCCCO)c2)c1` [Example 66, 2-[(3-hydroxypropyl)amino]-4-[4-(5-methoxypyridin-3-yl)-9H-carbazol-9-yl]benzamide] registered a melting point of 198 °C. Further, the pIC50 in series [1] is 5.00 to 6.00. Further, in series [2], the pIC50 was greater than 6.00.

On to `NC(=O)c1ccc(-c2cccc3c2c2ccccc2n3-c2ccc(C(N)=O)c(N[C@H]3CC[C@H](O)CC3)c2)cn1` [Example 28, 5-(9-{4-carbamoyl-3-[(4-trans-hydroxycyclohexyl)amino]phenyl}-9H-carbazol-4-yl)pyridine-2-carboxamide], for which the melting point is greater than 260 °C. The same compound showed a negative logarithm of the IC50 (pIC50) in series [1] greater than 6.00. Moreover, in series [2], the pIC50 was 5.00 to 6.00.
